From patent US20060084789A1, “Immunotherapeutic and immunoprphylactic reagents” (priority 2002, published 2006)

What was measured:
Assay type in all cases: cell-based, human
RGP-specific TCL = assay: TCL proliferation assay (3H-thymidine incorporation, stimulation index); conditions: peptides 10 μg/ml
Method: Generation of Short-Term RGP-Specific TCL
PBMC were cultured in 24-well plates (Costar, Mass., USA) at 2.5×10^6 cells/well with RGP extract at a concentration of 25 or 50 μg/ml in RPMI 1640 medium (Gibco BRL, NY, USA) supplemented with 2 mM GlutaMAX I (Gibco BRL), 0.05 mg/ml gentamicin (David Bull Laboratories, Mulgrave, Victoria, Australia) and 5% heat-inactivated hunan AB^+ serum (Sigma, Mo., USA) for 7 days at 37° C. in a 5% CO2 humidified incubator. At day 7, cells were washed once and restimulated in 24-well plates at 5×10^5 cells/well width 25 or 50 μg/ml of RGP extract in the presence of 5×10^5 cells/well irradiated (3000 rads) autologous PBMC as a source of antigen presenting cells (APC). At day 2 following restimulation, 10 U/ml of Lymphocult T-LF (LC; Biotest, Germany) was added as a source of IL-2 and at day 4, 1 ml of culture medium was removed and replaced with fresh medium and 10 U/ml of LC. […] In all experiments T cells were rested for 6 to 7 days after the last addition of antigen and APC before testing.
T cells (5×10^4/well) were cultured in 96-well U bottom plates with either RGP extract at concentrations ranging from 25 to 200 μg/ml, purified Lol p 1 (0.12 to 2 μg/ml) or Lol p 5 (0.1 to 10 μg/ml), or Lol p 1 or Lol p 5 peptides (10 μg/ml), or medium alone (to determine background levels of proliferation), in the presence of washed autologous irradiated (3000 rads) PBMC (5×10^4/well). […] Cultures were incubated for 3 days, pulsed for the last 16 hours with ^3H-thymidine (1 μCi/well) and harvested onto glass fibre filters. ^3H-thymidine incorporation was measured by liquid scintillation spectroscopy and the mean counts per minute (cpm) for triplicate cultures was determined. Responses were considered positive if the stimulation index (SI, cpm of antigen-stimulated T cells divided by cpm of unstimulated T cells) was ≧2.5. Where several concentrations of allergen were tested (i.e., RGP, Lol p 1 and Lol p 5), values corresponding to the highest proliferation are shown.

[1] = test system: IL-5 production by RGP-specific TCL; assay: IL-5 detection in culture supernatants by sandwich ELISA; conditions: supernatant at 48 h, UD undetectable, limit of detection 10 pg/ml
Method: (§1) Cytokine Detection in Culture Supernatants
(§2) Supernatants of triplicate cultures were harvested and pooled from T cell proliferation assay cultures at 48 hours for the detection of IL-5 and IFN-γ production by sandwich ELISA. Briefly white Maxisorp (NUNC, Roskilde, Denmark) ELISA plates were coated with capture mAb (anti-IL-5, Pharmingen, San Diego, Calif., USA; anti-IFN-γ, Endogen, Woburn, Mass. USA) overnight at 4° C. Plates were then washed and wells blocked with 1% Bovine Serum Albumin/PBS for 1 hour at room temperature. Following washing, test samples (neat) and serial dilutions of recombinant human IL-5 (Pharmingen, USA) or IFN-γ (Endogen, USA) (for the construction of standard curves) were added and incubated overnight at 4° C. Following washing, plates were incubated with biotinylated detecting mAb (anti-IL-5, Pharmingen, USA; […], Endogen, USA) for 1 hour at room temperature. Plates were then washed and incubated with streptavidin-peroxidase (Amersham, Piscataway, N.J., USA) for 30 minutes at room temperature. Following washing, a chemiluminescent substrate (Du Pont, Wilmington, Del., USA) was added to each well and plates read in a Lumicount microplate Glow Luminometer (Packard Instrument Company, Meriden, Conn., USA), 0.5 seconds/well, automatic sensitivity setting. Standard curve construction and determination of test sample cytokine levels were performed using Packard I-smart software. The limits of detection for IL-5 and IFN-γ were 10 pg/ml and 2 pg/ml respectively.

[2] = test system: IFN-γ production by RGP-specific TCL; assay: IFN-γ detection in culture supernatants by sandwich ELISA; conditions: supernatant at 48 h, UD undetectable, limit of detection 2 pg/ml
Method: as §1, §2

[3] = Subject 2 TCL, Lol p 5 series (Table 4), RGP and Lol p 5 maximal response
[4] = Subject 11 TCL, Lol p 5 series (Table 4), RGP and Lol p 5 maximal response
[5] = Subject 29 TCL, Lol p 5 series (Table 4), RGP and Lol p 5 maximal response
[6] = Subject 2 TCL, Lol p 5 peptides
[7] = Subject 4 TCL, Lol p 1 series (Table 3), RGP and Lol p 1 maximal response
[8] = Subject 20 TCL, Lol p 1 peptides
[9] = Subject 15 TCL, Lol p 1 series (Table 3), RGP and Lol p 1 maximal response
[10] = Subject 15 TCL, Lol p 1 peptides
[11] = Subject 38 TCL, Lol p 5 peptides
[12] = Subject 10 TCL, Lol p 1 series (Table 3), RGP and Lol p 1 maximal response
[13] = Subject 11 TCL, Lol p 1 series (Table 3), RGP and Lol p 1 maximal response
[14] = Subject 18 TCL, Lol p 1 series (Table 3), RGP and Lol p 1 maximal response
[15] = Subject 23 TCL, Lol p 1 series (Table 3), RGP and Lol p 1 maximal response
[16] = Subject 23 TCL, Lol p 1 peptides

Substance | Proliferative response, stimulation index (RGP-specific TCL; [3]) | Proliferative response, stimulation index (RGP-specific TCL; [4]) | Proliferative response, stimulation index (RGP-specific TCL; [5]) | IL-5, proliferation inducing peptides [1, 6] [pg/mL] | IFN-γ, proliferation inducing peptides [2, 6] [pg/mL] | Proliferative response, stimulation index (RGP-specific TCL; [7]) | Proliferative response, stimulation index (RGP-specific TCL; [9]) | IL-5, proliferation inducing peptides [1, 10] [pg/mL] | IFN-γ, proliferation inducing peptides [2, 10] [pg/mL] | Proliferative response, stimulation index (RGP-specific TCL; [12]) | Proliferative response, stimulation index (RGP-specific TCL; [13]) | Proliferative response, stimulation index (RGP-specific TCL; [14]) | Proliferative response, stimulation index (RGP-specific TCL; [15]) | IFN-γ, proliferation inducing peptides [2, 16] [pg/mL] | other results
Lol p 5 peptide 190-209: synthetic 20-mer, amino acids 190-209 of Lol p 5A (SEQ ID NO:2) (GAYETYKFIPSLEAAVKQAY; Lolium perenne) | 3.0 | 4.0 | 3.1 | 518.1 | 7.8 |  |  |  |  |  |  |  |  |  | Proliferative response, stimulation index (RGP-specific TCL; Subject 4 TCL, Lol p 5 series (Table 4), RGP and Lol p 5 maximal response): 5.1
Lol p 1 peptide 37-56: synthetic 20-mer, amino acids 37-56 of Lol p 1A (SEQ ID NO:1) (NCGACGYKDVDKAPFNGMTG; Lolium perenne) |  |  |  |  |  | 2.5 |  |  |  |  |  |  |  |  | Proliferative response, stimulation index (RGP-specific TCL; Subject 20 TCL, Lol p 1 series (Table 3), RGP and Lol p 1 maximal response): 2.6; IL-5, proliferation inducing peptides [1, 8]: 46.9 pg/mL; IFN-γ, proliferation inducing peptides [2, 8]: 11.1 pg/mL
Lol p 1 peptide 64-83: synthetic 20-mer, amino acids 64-83 of Lol p 1A (SEQ ID NO:1) (KDGRGCGSCFEIKCTKPESC; Lolium perenne) |  |  |  |  |  |  | 3.5 | 26.5 | 38.8 |  |  |  |  |  | Proliferative response, stimulation index (RGP-specific TCL; Subject 1 TCL, Lol p 1 series (Table 3), RGP and Lol p 1 maximal response): 7.2; Proliferative response, stimulation index (RGP-specific TCL; Subject 7 TCL, Lol p 1 series (Table 3), RGP and Lol p 1 maximal response): 3.5
DVNAGFKAAVAAAANAPPAD (Lolium perenne) [Lol p 5 peptide 37-56] | 4.3 | 4.5 | 2.8 | 692.8 | 7.0 |  |  |  |  |  |  |  |  |  | Proliferative response, stimulation index (RGP-specific TCL; Subject 6 TCL, Lol p 5 series (Table 4), RGP and Lol p 5 maximal response): 7.3; Proliferative response, stimulation index (RGP-specific TCL; Subject 13 TCL, Lol p 5 series (Table 4), RGP and Lol p 5 maximal response): 0.9; Proliferative response, stimulation index (RGP-specific TCL; Subject 20 TCL, Lol p 5 series (Table 4), RGP and Lol p 5 maximal response): 4.9; Proliferative response, stimulation index (RGP-specific TCL; Subject 35 TCL, Lol p 5 series (Table 4), RGP and Lol p 5 maximal response): 4.1; Proliferative response, stimulation index (RGP-specific TCL; Subject 38 TCL, Lol p 5 series (Table 4), RGP and Lol p 5 maximal response, * SDS-PAGE purified Lol p 5): 4.0; IL-5, proliferation inducing peptides [1, 11]: 275.1 pg/mL; IFN-γ, proliferation inducing peptides [2, 11]: 85.0 pg/mL
KGKDKWIELKESWGAVWRID (Lolium perenne) [Lol p 1 peptide 181-200] |  |  |  |  |  | 4.5 | 5.8 | 13.3 | 56.6 | 2.6 | 7.3 | 2.6 | 6.2 | 11.7 | IL-5, proliferation inducing peptides [1, 16]: 25.1 pg/mL
KESWGAVWRIDTPDKLTGPF (Lolium perenne) [Lol p 1 peptide 190-209] |  |  |  |  |  | 6.2 |  | 15.3 | 63.5 | 3.7 | 3.3 | 5.4 | 5.2 | 8.3 | Proliferative response, stimulation index (RGP-specific TCL; Subject 14 TCL, Lol p 1 series (Table 3), RGP and Lol p 1 maximal response): 5.7; Proliferative response, stimulation index (RGP-specific TCL; Subject 19 TCL, Lol p 1 series (Table 3), RGP and Lol p 1 maximal response): 3.0; Proliferative response, stimulation index (RGP-specific TCL; Subject 22 TCL, Lol p 1 series (Table 3), RGP and Lol p 1 maximal response): 5.7; IL-5, proliferation inducing peptides ([1]; Subject 19 TCL, Lol p 1 peptides): 14.7 pg/mL; IFN-γ, proliferation inducing peptides ([2]; Subject 10 TCL, Lol p 1 peptides): 9.0 pg/mL
